Values of other authors as cited in patent US20110218104A1, “Biodiesel Solvents in Pesticide Compositions” (AUBURN UNIVERSITY, priority 2010, published 2011).

Conditions: Merck Index, 1989

In the case of `NC(N)=O` [urea], the solubility in glycerin is given as “considerable solubility”.
